Key:
Assay type in all cases: cell-based
[1] = tested on: glioblastoma cells (U87MG); experiment: CCK-8 cell viability (toxicity), U87MG; conditions: CCK-8, compared to leaving groups with similar structures
Procedure: (§1) Specifically, for cell preparation, approximately 5×10^3 cells each of glioblastoma cells (U87MG), hepatoma cells (Huh7), cervical cancer cells (HeLa), and skin cancer cells (B16F10) were treated in a 96-well clear plate (SPL Life Science, Ref. of Korea), cultured at 37° C. for 24 hours, and then treated with Compound 1 (NPO-o-Pyr, 10 μM) and analyzed using a CCK-8 assay kit (Dofindo, Japan) according to the manufacturer's instructions. Absorbance levels were analyzed at a wavelength of 490 nm by a microplate reader (SpctraMax Gemini EM, Molecular Devices, US). 2-Hydroxypyridine and various leaving groups with similar structures thereto were treated in U87MG, Huh7, HeLa, and B16F10 cells, and the cell viability was measured, which was shown in FIG. 12.

hepatoma cells (Huh7) = experiment: CCK-8 cell viability (toxicity), Huh7; conditions: Huh7, CCK-8, compared to leaving groups with similar structures
Procedure: as §1

[2] = tested on: cervical cancer cells (HeLa); experiment: CCK-8 cell viability (toxicity), HeLa; conditions: CCK-8, compared to leaving groups with similar structures
Procedure: as §1

[3] = tested on: skin cancer cells (B16F10); experiment: CCK-8 cell viability (toxicity), B16F10; conditions: B16F10, CCK-8, compared to leaving groups with similar structures
Procedure: as §1

Measured: toxicity (cell viability)

Oc1ccccn1 [2-hydroxypyridine]
very low: all assays above

Source: patent US20250389725A1, “METHOD FOR DETECTION OF SULFUR-CONTAINING AMINO ACID AS BIOMARKER FOR GLIOBLASTOMA USING NOVEL FLUORESCENT PROBE AND FLUORESCENCE-GUIDED SURGERY IMAGING APPLICATION THEREOF” (UNIVERSITY-INDUSTRY COOPERATION GROUP OF KYUNG HEE …, priority 2023, published 2025)
